Laboratory results from EP4732907A1, “STYRYL BENZOTHIAZOLIUM SALTS AND ITS USES AGAINST PARASITIC INFECTIONS” (priority 2024, dated 2026).

Key:
Type in all cases: cell-based
[1] = test system: L. major promastigotes (LucRE9); test: In vitro antileishmanial activity against Leishmania major promastigotes (MTT-based assay, 72 h); details: Table 3; for IC50: Leishmania major, promastigotes, 72 h, MTT
Method: Parasite culture: L. major promastigotes (LucRE9) were cultured at 28 °C in 5% CO2 in modified RPMI-1640 medium (Invitrogen, Carlsbad, CA) with 10% hiFBS.
The anti-leishmanial activity of the compounds was determined using MTT-based assay (Sigma-Aldrich) (Antimicrob Agents Chemother 2011, 55, 3838-3844). The stock solutions of the compounds were prepared in DMSO with a final DMSO percentage in each well maintained below 1%. 4 × 10^6 parasites per mL were incubated at 28 °C in 96-well plates (50 µL/well) either alone or in the presence of increasing concentration of compounds DMSO for 72 h. After the incubation period, 10 µL of MTT (5 mg/ml) was added to each well and parasites were incubated for 4 h at 28°C. Subsequently, cell lysis was performed using 50 µL/well of 20% SDS. The plate was then incubated at 37 °C for an additional hour and then absorbance was measured at a wavelength of 540 using an Infinite F200 plate reader (TECAN Austria, GmbH). The IC50 was calculated as described above. Data were presented as the average of at least three independent measurements, each conducted in triplicate conditions.

MRC-5 cell line = test: Cytotoxicity assay in MRC-5 cell line (alamarBlue assay, 72 h); details: Homo sapiens, MRC5, Table 3
Method: Cell culture: Cell culture media were purchased from Gibco (Grand Island, NY, USA). Fetal bovine serum (FBS) was a product of Harlan-Seralab (Belton, U.K.). Supplements and other chemicals not listed in this section were obtained from Sigma Chemicals Co. (St. Louis, Mo., USA). Plastics for cell culture were supplied by Thermo Scientific™ BioLite. All tested compounds were dissolved in DMSO at a concentration of 10 mg/mL and stored at -20°C until use. Cell lines were maintained in Dulbecco's modified Eagle's medium (DMEM) containing glucose (1 g/L), glutamine (2 mM), penicillin (50 IU/mL), streptomycin (50 µg/mL) and amphotericin (1.25 µg/mL), supplemented with 10% FBS.
The stock solutions of the compounds were prepared in DMSO, with the final DMSO concentration in each well maintained below 1%. […] Subsequently, the compounds were added at various concentrations ranging from 0 to 100 µM, and the plates were incubated for 72 h. After the incubation period, 20 µL of resazurin solution (110 ng/ml) were added to each well and cells were incubated for 4 h. Then, cells were lysed with 50 µL/well of 3% SDS. The plate was incubated at 37 °C for an additional hour and subsequently, the fluorescence intensity was measure at the Infinite F200 plate reader (TECAN Austria, GmbH), exciting at 550 nm and recording the emission at 590 nm. […] Data are presented as the average of at least three independent measurements, each conducted in triplicate conditions.

[2] = test system: Bloodstream forms (BSF) of T. brucei brucei 'single marker' S427 (S16); test: In vitro antitrypanosomal activity against Trypanosoma brucei (alamarBlue assay, 72 h); details: Table 3; IC50 MRC-5 / IC50 T.brucei
Excerpt: Data were presented as the average of at least three independent measurements, each conducted in triplicate conditions.

[3] = test system: Leishmania major amastigotes; test: In vitro antileishmanial activity against Leishmania major amastigotes in THP1 cells (luciferase assay, 72 h); details: Table 4
Method: The antiparasitic activity of the compounds against the intracellular form of Leishmania major was evaluated using the Luciferase Assay System kit from Promega. […] Post-differentiation, the cells were washed and fresh medium was added (100 µL/well) before being reincubated. […] The plates were then incubated at 35°C in 5% CO2. After 24 hours, the wells were washed three times with PBS, and fresh medium with increasing concentrations of compounds was added (100 µL/well). After another 72 hours of incubation, the cells were then treated with 25 µL of lysis buffer and stored at -80°C. Following 24 hours, 25 µL of luciferase enzyme substrate was added to each well, and the luciferase activity of the amastigotes was determined using a TECAN Infinite F200 microplate reader. […] Data represent the average of three independent experiments, each conducted in triplicate.

[4] = test system: THP1 cells (human monocytic cell line); test: Cytotoxicity assay on PMA-differentiated THP1 (alamarBlue assay, 72 h); details: THP-1, Table 4, PMA-differentiated THP1, 72 h
Method: Post-differentiation, the cells were washed and fresh medium was added (100 µL/well) before being reincubated. […] Data represent the average of three independent experiments, each conducted in triplicate.

Compound	IC50 [1]	IC50 (MRC-5 cell line)	Selectivity Index (SI) T.brucei [2]	Selectivity Index (SI) L.major ([1]; IC50 MRC-5 / IC50 L.major promastigotes)	IC50 ([3]; Leishmania major, THP-1, intracellular amastigotes in THP1 macrophages, 72 h, read-out: IC50 (uM) L. major)	Selectivity Index (SI) MRC-5 ([3]; IC50 MRC-5 / IC50 L.major amastigotes)	Selectivity Index (SI) THP-1 ([3]; IC50 THP-1 / IC50 L. major amastigotes)	IC50 [4]
C[n+]1c(/C=C/c2cc3c4c(c2)CCCN4CCC3)sc2ccccc21 [Compound 3]	0.0065 ± 0.0029 µM	0.08 ± 0.03 µM						
C[n+]1c(/C=C/c2ccc(N(c3ccccc3)c3ccccc3)cc2)sc2ccccc21 [Compound 2]	0.02 ± 0.011 µM	5.13 ± 0.76 µM	15.1	252.0	0.0281 ± 0.00473 µM	182	33	0.93 ± 0.02 µM
CN(C)c1ccc(/C=C/c2sc3ccccc3[n+]2C)cc1 [Compound 1, (E)-2-(4-(Dimethylamino)styryl)-3-methylbenzo[d]thiazol-3-ium iodide]	0.02 ± 0.013 µM	1.52 ± 0.37 µM						
